Laboratory results as given in publication PMC6030209, “Structure-Activity Investigations and Optimisations of Non-metabolite Agonists for the Succinate Receptor 1” (Scientific Reports, 2018).

Assays:
[1] = format: in vitro ADME; conditions: 2 hours, 37 °C
Procedure: FaSSIF, FeSSGF and FaSSGF were prepared in accordance to the manufacturers procedure, Biorelevant.com. Triplicates of a 50 μM solution of the test compounds were prepared from a 10 mM stock solution in DMSO diluted with FaSSGF/FaSSIF/FeSSIF. The samples were incubated in an Eppendorf® Thermomixer (37 °C, 650 rpm). Samples were withdrawn at 0 min and 120 min, centrifuged (10 min at 10,000 rpm) and the supernatant analysed by HPLC/UPLC. The stability was calculated based on peak area of a 0 point sample.

SUCNR1 [2] = test: Active/inactive grouping by EC50 threshold (ALiBERO training set, Table S1); format: cell-based; conditions: active (1) / inactive (0), EC50 threshold of 10 µM
Description: In brief, starting from the homology model supported by mutagenesis data[4], ALiBERO introduced receptor flexibility via Normal Mode Analysis and Monte Carlo sampling, to generate a small subset of receptor models (pockets). […] For a list of all compounds used in the optimisation protocol, see Table S1. Receptor structures were then chosen based on their ability to discriminate actives from inactives in a retrospective virtual screening using the docking protocol and scoring function in ICM (Molsoft L.L.C., San Diego, CA, USA)[20], as measured by the normalised square root area under the curve (NSQ_AUC). […] The ALiBERO-optimised receptor ensemble was subsequently validated in a virtual ligand screening using an external test set with a higher active:decoy ratio (~1:50).
ALiBERO is an iterative sampling-selection protocol for receptor optimisation that relies on the use of ligand information for selecting the best-performing receptor conformations. Homology models of the mouse SUCNR1 receptor were constructed according to Trauelsen et al.[4] and loaded into ICM (Molsoft L.L.C., San Diego, CA, USA). The structure was converted into an ICM object, thereby assigning protein atom types, optimising hydrogens and His, Pro, Asn, […] and Cys side-chain conformations. […] For a list of all compounds used in the optimisation protocol, see Table S1. ALiBERO was performed using the prepared receptor structure and ligand training set as input. Binding site residues were manually selected based on proximity to the position of MRS2500 in the superimposed structure of the P2Y1 receptor (PDB 4XNW). 100 elastic network normal mode analysis derived conformers were built in order to recreate backbone and side-chain flexibility (T = 300 K). Next, a flexible-ligand static-receptor small-scale virtual screening was performed on each of the receptor conformers, from which several pockets were selected for the following generation. The ligand and decoy molecules were docked into mSUCNR1, represented as pre-calculated potential grids and then sorted according to their ICM VLS scores. The maximum number of complementary pockets for each generation was set to 5 with a maximum of 10 generations. Receptor models were selected based on their combined screening performance, as determined by the normalised square root area under the curve, NSQ_AUC. After each round of virtual screening, an all-atom Monte Carlo side-chain refinement was performed to account for induced-by-ligand changes. NSQ_AUC values were calculated according to Katritch et al.[16].

[3] = format: physicochemical; conditions: after 70 hours in 10 mM PBS7.4, 37 °C
Procedure: Triplicates of a 50 μM solution of the test compounds were prepared from 0.01 M PBS7.4 and a 10 mM stock solution in DMSO. The samples were incubated in an Eppendorf® Thermomixer (37 °C, 650 rpm). The samples were briefly vortexed and 50 μL aliquots were withdrawn at the time points 0 h, 24 h, 48 h etc. and analysed immediately on UPLC. The chemical stability in PBS7.4 was determined at every time point in percentage relative to the 0 h time point.

[4] = format: in vitro ADME, mouse; conditions: 1 hour, 1 μM, 0.5 mg/mL microsomes
Procedure: Microsomal stability was studied in mouse liver microsomes (0.5 mg/mL) at a final test compound concentration of 1 μM and performed in triplicates in accordance to the published protocol. In short: Prewarmed (37 °C) 0.1 M PBS7.4, 10 mM NADPH in PBS7.4 and test compound (1 mM in DMSO) were added to an Eppendorf® Tube. The samples were incubated for 5 min at 37 °C before addition of newly thawned microsomes. The samples were mixed by gentle vortexing and incubated for 1 h at 37 °C, 300 rpm in an Eppendorf® Thermomixer. Samples were quenched by addition of ice-cold MeOH/MeCN (1:1) and centrifuged for 5 min at 10,000 g. The supernatant was transferred to HPLC vials and stored in the freezer until analysis by HPLC/UPLC. The metabolic stability was calculated based on a 0 min sample. All compounds were analysed in triplicates.

mSUCNR1 = target: T1, mSUCNR1 (Mus musculus, UniProt Q99MT6); test: IP3 turnover assay in mSUCNR1 transfected HEK-293 cells; format: cell-based
T1 construct: FLAG (own knowledge: pCMV-Tag 2B is an N-terminal FLAG vector); host or cells: HEK-293, transient transfection with Lipofectamine-2000
T1 sequence (Q99MT6 1-317): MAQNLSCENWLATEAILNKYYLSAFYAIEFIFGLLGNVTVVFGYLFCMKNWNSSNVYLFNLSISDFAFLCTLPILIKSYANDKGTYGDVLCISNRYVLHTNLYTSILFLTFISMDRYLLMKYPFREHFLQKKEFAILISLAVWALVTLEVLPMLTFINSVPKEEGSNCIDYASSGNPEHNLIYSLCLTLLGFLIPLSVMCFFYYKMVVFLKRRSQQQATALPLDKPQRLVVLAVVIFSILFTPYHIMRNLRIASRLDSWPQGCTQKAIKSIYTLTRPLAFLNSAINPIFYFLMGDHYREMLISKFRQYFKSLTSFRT
Procedure: Receptor constructs for mSUCNR1 and hSUCNR1 were bought from Origene and cloned into the eukaryotic expression vector pCMV-Tag(2B) (Stratagene).
Transient transfection of the HEK-293 cells was done with Lipofectamine-2000 according to manufacturer’s protocol. Cells were supplemented with fresh medium after 5 h.
96-well plates were coated with poly-D-lysine and HEK-293 cells were plated (35.000 cells/well). Cells were transfected for 5 h the following day and subsequently incubated O/N with 0.5 μCi/mL myo[3H]inositol (Perkin Elmer) in 100 μL growth medium. On day 3 cells were washed with 200 µL HBSS/well (Gibco, Life Technologies) followed by a pre-incubation (30 min, 37 °C) with 100 µL HBSS supplemented with 10 mM LiCl. Cells were stimulated with ligand (120 min, 37 °C) and lysed with 50 µL 10 mM formic acid (30 min on ice). In a white 96 well plate 20 µL cell extracts and 80 µL 1:8 diluted YSi scintillation beads (Perkin Elmer) were mixed. The plate was spun down, and a Packard Top Count NXT counter recorded light emission (scintillation) after an 8 h delay.

[5] = logD7.4 determination (1-octanol/PBS7.4 shake flask); format: physicochemical; conditions: 1-octanol/PBS7.4, pH 7.4
Procedure: A glass vial with screw cap (8 mL) was charged with test compound (40 μL, 10 mM in DMSO), PBS7.4 (0.01 M, 1980 μL), and 1-octanol (1980 μL). The vial was capped and sealed with parafilm and shaken at 700 rpm using an IKA® KS 125 basic shaker for 24 h at room temperature. The parafilm was removed and the sample was allowed to equilibrate for 1 h before analysis. 100 μL of the octanol phase was withdrawn and diluted 1:10 with MeOH(+0.1% formic acid)/MilliQ water (4:1, v/v) and analysed by HPLC/UPLC. The interface was removed and the PBS7.4 phase analysed directly by HPLC/UPLC. All analysis was performed in duplicates and logD values were calculated from the peak areas (mAU*min) and adjusted for difference in injection volume and concentration-absorption effects from the solvents, using two calibration points per compound per solvent, and dilution of the octanol phase. All compounds were analysed in triplicates.

physchem = format: physicochemical; conditions: pH 7.4, aqueous buffer, kinetic from dmso stock, 10 mM PBS7.4, 25 °C
Procedure: Duplicates of a 200 μM solution of the dicarboxylic acids were prepared from 0.01 M PBS7.4 and a 10 mM stock solution in DMSO. The samples were incubated in an Eppendorf® Thermomixer (25 °C, 800 rpm) for 24 h. Afterwards, the samples were centrifuged for 5 min at 11,000 rpm and the supernatant was filtered (0.45 μm PTFE membrane) before analysis by HPLC. The solubility was calculated based on a concentration-absorption curve.

SUCNR1 [6] = conditions: full agonist on SUCNR1; cited from earlier work

| Compound | stability in FaSSGF ([1]; simulated gastrointestinal fluid FaSSGF) | stability in FaSSIF ([1]; simulated gastrointestinal fluid FaSSIF) | Active (SUCNR1 [2]) | chemical stability [3] [%] | stability in mouse liver microsomes [4] | EC50 (mSUCNR1) [µM] | mSUCNR1 efficacy, % (mSUCNR1; efficacy relative to succinate (100%), IP3 turnover, HEK cells (N = 3)) [%] | logD at 24 h [5] | solubility kinetic at 24 h (physchem) [µM] | EC50 (SUCNR1 [6]) [µM] |
| --- | --- | --- | --- | --- | --- | --- | --- | --- | --- | --- |
| O=C(O)C[C@H](NC(=O)c1cccc(-c2ccc(OC(F)(F)F)cc2)n1)C(=O)O [Compound 31, (6-(4-(Trifluoromethoxy)phenyl)picolinoyl)-L-aspartic acid] | stable | stable | 1 (active (1)) | > 98 | stable | 0.178 | 69.9 ± 2.2 | -2.13 | > 200 |  |
| cis-epoxysuccinic acid |  |  |  |  |  |  |  |  |  | 2.7 |
